According to patent US20100196469A1, “Pharmaceutical Formulation containing an HMG-COA Reductase Inhibitor and method for the preparation thereof” (PHARMATHEN S.A., priority 2007, published 2010):
Where a name gives a salt, the structure may show the parent alone.

What was measured:
Format in all cases: physicochemical
[1] = Compatibility test of Atorvastatin alone and Atorvastatin with Attapulgite at 40° C./75% RH (impurities)
[2] = Stability after preparation and after 3 months in HDPE containers, normal and intermediate conditions (impurities); conditions: for Atorvastatin Amide / Desfluoro: limit NMT 0.3%; for Atorvastatin Diepoxide: limit NMT 0.6%; for Diketo1,2-Diol + Diketoepoxide: limit NMT 1.20%; for Lactone: limit NMT 2%; for Total: total impurities; for Unknown: unknown impurity
Description: (§1) One of the main objects of the present invention was to prepare a product with acceptable stability. For this reason 3 batches of each composition were exposed to normal, intermediate and accelerated stability studies according to the current ICH guidelines.
Subsequently, the tablets of compositions 2 were packed into white opaque, HDPE plastic […] C.±2° C. and relative humidity of 65%±5% for intermediate conditions. The results for composition 2 and of the active ingredient directly after preparation and after 3 months stability are described in the stability table below (TABLE 3).

[3] = Stability of unpacked tablets at 40° C.±2° C. and 75%±5% RH (impurities); conditions: 40°/75 RH
Description: as §1
The tablets of the above compositions were exposed at a temperature of 40° C.±2° C. and relative humidity of 75%±5% without being packed in any type of container or blister. The tablets were tested in predetermined time intervals. The results for each composition are described in the stability table (TABLE 1).

For `CC(C)c1c(C(=O)Nc2ccccc2)c(-c2ccccc2)c(-c2ccc(F)cc2)n1CC[C@@H](O)C[C@@H](O)CC(=O)O` (relative stereo) [Atorvastatin, [R—(R*,R*)]-2-(4-fluorophenyl)-b,d-dihydroxy-5-(1-methylethyl)-3-phenyl-4[(phenylamino)carbonyl]-1H -pyrrole-1-heptanoic acid, calcium salt (2:1) trihydrate], the “Diketo1,2-Diol + Diketoepoxide” value ([1]; limit 1.20%) was 0.39%, the “Atorvastatin Amide” value ([1]; limit NMT 0.3%) was 0.05% and the Desfluoro ([1]; limit NMT 0.3%) was 0.07%. For the same molecule, the “Methyl Ester” value ([1]; limit NMT 0.3%) was 0.01%, the “Atorvastatin Diepoxide” value ([1]; limit NMT 0.6%) was 0.20% and the Lactone ([1]; limit NMT 2%) was 0.34%. The Total ([1]; total impurities) was 1.29%, the “Atorvastatin Amide” value ([2]; 0 months) was 0.06% and the Desfluoro ([2]; 0 months) was 0.06%. For the same molecule, the “Atorvastatin Diepoxide” value ([2]; 0 months) was 0.25%, the “Diketo1,2-Diol + Diketoepoxide” value ([2]; 0 months) was 0.84% and the Lactone ([2]; 0 months) was 0.07%. The Total ([2]; 0 months) was 1.69%, the Unknown ([2]; 0 months) was 0.34% and the “Atorvastatin Amide” value ([2]; 3 months 25° C./60% RH) was 0.06%. The Desfluoro ([2]; 3 months 25° C./60% RH) was 0.03%, the “Atorvastatin Diepoxide” value ([2]; 3 months 25° C./60% RH) was 0.30% and the “Diketo1,2-Diol + Diketoepoxide” value ([2]; 3 months 25° C./60% RH) was 0.92%. The Lactone ([2]; 3 months 25° C./60% RH) was 0.05%, the Total ([2]; 3 months 25° C./60% RH) was 1.96% and the Unknown ([2]; 3 months 25° C./60% RH) was 0.38%. The “Atorvastatin Amide” value ([2]; 3 months 30° C./65% RH) was 0.06%, the Desfluoro ([2]; 3 months 30° C./65% RH) was 0.03% and the “Atorvastatin Diepoxide” value ([2]; 3 months 30° C./65% RH) was 0.38%. The “Diketo1,2-Diol + Diketoepoxide” value ([2]; 3 months 30° C./65% RH) was 1.10%, the Lactone ([2]; 3 months 30° C./65% RH) was 0.05% and the Total ([2]; 3 months 30° C./65% RH) was 2.12%. For the same molecule, the Unknown ([2]; 3 months 30° C./65% RH) was 0.4%, the Atorvastatin Amide [3] was 0.07% and the Atorvastatin Diepoxide [3] was 0.34%. For the same molecule, the Desfluoro [3] was 0.08%, the Diketo1,2-Diol + Diketoepoxide [3] was 0.69% and the Lactone [3] was 0.45%. For the same molecule, the Total ([3]; total impurities) was 1.87%.
